Here are results for 5 compounds from patent US7271164B2, “Cyclohepta[b][1,4]diazepino[6,7,1,-hi]indoles and derivatives” (Wyeth, priority 2000, dated 2007).

Counter-ions that a name gives are not always drawn.

One data set addresses T1, human 5-HT2C receptor (Homo sapiens, UniProt P28335).
T1 construct: expressed in transfected cells; host or cells: CHO cells
T1 sequence (P28335 33-458): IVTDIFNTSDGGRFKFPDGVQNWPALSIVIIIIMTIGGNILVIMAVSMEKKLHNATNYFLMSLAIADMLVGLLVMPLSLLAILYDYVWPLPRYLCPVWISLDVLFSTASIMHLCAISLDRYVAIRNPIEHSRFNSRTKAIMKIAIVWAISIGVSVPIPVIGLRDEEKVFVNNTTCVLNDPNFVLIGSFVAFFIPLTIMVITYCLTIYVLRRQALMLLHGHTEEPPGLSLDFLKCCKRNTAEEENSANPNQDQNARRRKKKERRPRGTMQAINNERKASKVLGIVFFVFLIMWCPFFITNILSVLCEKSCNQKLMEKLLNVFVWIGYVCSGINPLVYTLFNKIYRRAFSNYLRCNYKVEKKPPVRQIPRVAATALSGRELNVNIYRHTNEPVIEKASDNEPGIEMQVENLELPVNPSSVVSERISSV
As to the kind of experiment: Stimulation of [3H] Inositol Monophosphate Production by 5-HT2C Agonists (transfected CHO cells). Format: cell-based.

Data set [1] addresses T2, human 5-hydroxytryptamine2C (h5HT2C) receptor (Homo sapiens, UniProt P28335).
T2 construct: expressed in transfected cells; host or cells: CHO (Chinese Hamster Ovary) cells; membrane preparation
T2 sequence (P28335 33-458): T1 sequence (P28335 33-458)
Kind of data set: 5HT2C Receptor Binding Test Procedure ([125I] DOI displacement, CHO cell membranes).

Protocol for human 5-HT2C receptor: One (1) ml of maintenance medium containing 1 μCi/ml myo-[^3H] inositol was added to each well. After 48 hours labeling, the cells were washed once with 0.5 ml DMEM containing 25 mM HEPES and 10 mM LiCl, then preincubated with the medium for 30 min (antagonists were included in this period if tested). At the end of the preincubation, the medium was removed, the cells were then incubated with test compounds (in presence of antagonists if needed) for 30 min. The reaction was terminated by removal of the incubation solution and addition of 0.5 ml ice-cold 5% PCA, followed by 15 to 30 min incubation on ice. 200 μl of 0.5 M Tes/1.5 M K2CO3 was added to each well to neutralize to pH 7, and plates were left on ice for another 15 to 30 min to precipitate all salts. The liquid and solid phases were separated by centrifugation.
A portion (350 μl) of the upper aqueous phase was applied to Dowex AG-1X8 (formate form, 100-200 mesh) columns. The columns were then washed stepwise with 10 ml of water and 10 ml of 25 mM ammonium formate to remove free myo-[^3H]inositol and deacylated phosphoinositol, respectively. Finally 10 ml of 0.2 M ammonium formate solution was applied to the columns to elute [^3H] inositol monophosphate ([^3H] IP1) directly into scintillation vials. Of this eluate, 1 ml was used to determine radioactivity by scintillation counting. […]

Consider `c1cc2c3c(c1)c1c(n3CCNC2)CCCCC1` [Example 1, 1,2,3,4,9,10,11,12-Octahydro-8H-cyclohepta[b][1,4]diazepino[6,7,1-hi]indole], for which the Emax at human 5-HT2C receptor (CHO, read-out: 5HT2C % Emax (5HT, 100%)) is 73%. On human 5-HT2C receptor (read-out: Stimulation of IP3 (EC50)), the EC50 was determined as 500 nM.

Regarding `CSc1ccc2c(c1)C(N1CCN(C)CC1)Cc1ccccc1S2` (stereo not drawn) [Methiothepin], the Ki in data set [1] (reference compounds, [125I] DOI binding, h5HT2C in CHO membranes, read-out: Ki value and 95% confidence interval) came to 4.6 nM.

With `COc1cc(CC(C)N)c(OC)cc1I` (stereo not drawn) [[^125I] DOI], the Kd in data set [1] (read-out: dissociation constant, KD of [125I] DOI at the human serotonin 5HT2C receptor, saturation binding with increasing concentrations of [125I] DOI) stood at 0.4 nM.

Consider `c1cc2c3c(c1)c1c(n3CCNC2)CCCCC1` (as salt: hydrochloride) [Example 1, 1,2,3,4,9,10,11,12-Octahydro-8H-cyclohepta[b][1,4]diazepino[6,7,1-hi]indole], for which the melting point lay within 303 to 306 °C.

The compound `c1cc2c3c(c1)C1CCCCCC1N3CCNC2` (stereo not drawn) (as salt: hydrochloride) [Example 2, 1,2,3,4,8,9,10,11,12,12a-Decahydro-7bH-cyclohepta[b][1,4]diazepino[6,7,1-hi]indole] showed a melting point of 258 to 263 °C.
